Data as given in patent EP0070186B1, “Biologically active peptides” (CELLTECH LIMITED, priority 1981, dated 1985).

What was measured:
[1] = literature (Gudmundson et al. 1966); cited from earlier work
female Wistar rats = experiment: randomized bioassay, effect on plasma calcium after tail vein injection (Example 2); assay type: in vivo
Procedure: After preliminary experiments had shown that the time courses of the effects of PDN 21 and human calcitonin (hCT) on plasma calcium were similar, peptide in acetate buffer was injected into the tail vein of female Wistar rats (mean wt 45 g, range 43―48, Oxfordshire Laboratory Animal Colonies (1976) Ltd.) and blood was taken from the aorta after 30 min in a randomized bioassay (Macintyre, I. Galante, L. S. & Hillyard, C. J. in Handbuch der inneren MedizinVllIA(eds) Kuhlen- cordt, F. & Bartelheimer, H. 623-634 (Springer-Verlag, Heidelberg, 1980)). Plasma calcium was measured colormetrically by the method of (Gindler, E. M. & King, J. D. Amer. J.Clin. Path. 58, 376―382 (1972)), and the values confirmed by atomic absorption spectrophotometry. The results are shown graphically in Figure 3. Each point is the mean from three rats 0 PDN-21; A hCT (WHO 1st International Reference Preparation of Calcitonin Hormone for Bioassay, 70/234 supplied by the National Institute for Biological Standards and Control); DhCT+PDN-21 (800 ng PDN 21 was injected with each dose of calcitonin). […] Smoothed curves were fitted to the data by eye. […] Potencies were calculated in terms of hCT over the dose ranges where the log dose response is linear, yielding values of 0.017 milliunits hCT equivalent/ng PDN-21 and 5.11 milliunits hCT equivalent/milliunit hCT in the hCT+PDN-21 group. […]

Substance | effect on plasma phosphate [1] | enhancement of the potency of hCT (female Wistar rats; in the presence of a maximal dose of PDN-21, plasma calcium in the rat) | dose giving 50% response (ED50), plasma calcium (female Wistar rats; tail vein injection, blood after 30 min, probit transformation)
calcitonin | lowers | – | –
human calcitonin [hCT] | – | five-fold | 0.71 MRC milliunits
